Here are results for seven molecules from ChEMBL document CHEMBL1149929, “Novel 2-(2-furo[3,2-b]pyridinyl) pyrrolidines: potent neuronal nicotinic acetylcholine receptor ligands” (Bioorg Med Chem Lett, 1997).

The species entered for assay [1] is Rattus norvegicus. The assay is described as follows: Tested for nAChR-mediated dopamine release from rat striatal slices. Format: functional.
Assay [2] is filed under the species Rattus norvegicus. Briefly: Percent intrinsic activity relative to 100 uM (S)-nicotine. Format: functional.
Assay [3] in a line: Percent intrinsic activity against IMR-32 cells relative to 100 uM (S)-nicotine. It counts as functional, Homo sapiens.
Assay [4] concerns the target T1, Neuronal acetylcholine receptor; alpha4/beta2 (Homo sapiens, UniProt P17787+P43681). The assay is described as follows: Tested for functional activity against neuronal nicotinic acetylcholine receptor(nAChR) expressed in K177 cells using isotopic rubidium efflux assay. Format: cell-based.
The target in assay [5] is T1, Neuronal acetylcholine receptor; alpha4/beta2. The assay is described as follows: (§1) Percent intrinsic activity against K177 cells relative to 100 uM (S)-nicotine. It counts as functional, cell-based.
For assay [6], the target named is T2, Acetylcholine receptor subunit alpha (Homo sapiens, UniProt P02708). Briefly: Tested for functional activity against alpha-1 neuronal nicotinic acetylcholine receptor(nAChR) expressed in TE671 cells using isotopic rubidium efflux assay. Format: cell-based, TE-671.
The target in assay [7] is T2, Acetylcholine receptor subunit alpha. The assay is described as follows: Percent intrinsic activity against TE671 cells relative to 100 uM (S)-nicotine. To be noted: TE-671. It counts as functional, cell-based.
A short description of assay [8]: Tested for functional activity against neuronal nicotinic acetylcholine receptor(nAChR) expressed in IMR-32 cells using isotopic rubidium efflux assay. Format: cell-based. To be noted: Homo sapiens.
For assay [9], the target named is Neuronal acetylcholine receptor. The assay is described as follows: Tested for neuronal nicotinic acetylcholine receptor (nAChR) binding in a whole rat brain preparation using […] as the radioligand.
For assay [10], the target named is T2, Acetylcholine receptor subunit alpha. The description is as §1. Format: functional, cell-based.

For orientation: EC50 means the concentration that produces a half-maximal response. The low end stands for an effect from little substance, the high end for a need for much substance. Usually Ki stands for a dissociation constant, usually derived from enzyme kinetics or from competition with a known ligand. Higher therefore signals lower affinity.

T1 sequence (P17787 whole entry): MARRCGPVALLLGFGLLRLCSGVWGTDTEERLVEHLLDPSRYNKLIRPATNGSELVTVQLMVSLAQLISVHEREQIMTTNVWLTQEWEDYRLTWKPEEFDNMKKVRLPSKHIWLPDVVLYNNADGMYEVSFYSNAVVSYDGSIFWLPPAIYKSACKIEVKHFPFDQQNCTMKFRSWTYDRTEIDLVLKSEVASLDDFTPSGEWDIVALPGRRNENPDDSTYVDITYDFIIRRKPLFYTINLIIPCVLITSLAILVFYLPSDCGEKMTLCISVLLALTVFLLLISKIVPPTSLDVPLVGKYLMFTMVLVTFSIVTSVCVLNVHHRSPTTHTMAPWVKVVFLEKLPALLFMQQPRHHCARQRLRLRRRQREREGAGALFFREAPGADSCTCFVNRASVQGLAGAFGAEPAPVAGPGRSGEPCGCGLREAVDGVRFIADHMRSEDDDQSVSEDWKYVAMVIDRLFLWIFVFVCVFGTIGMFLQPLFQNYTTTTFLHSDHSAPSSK
T1 sequence (P43681 whole entry): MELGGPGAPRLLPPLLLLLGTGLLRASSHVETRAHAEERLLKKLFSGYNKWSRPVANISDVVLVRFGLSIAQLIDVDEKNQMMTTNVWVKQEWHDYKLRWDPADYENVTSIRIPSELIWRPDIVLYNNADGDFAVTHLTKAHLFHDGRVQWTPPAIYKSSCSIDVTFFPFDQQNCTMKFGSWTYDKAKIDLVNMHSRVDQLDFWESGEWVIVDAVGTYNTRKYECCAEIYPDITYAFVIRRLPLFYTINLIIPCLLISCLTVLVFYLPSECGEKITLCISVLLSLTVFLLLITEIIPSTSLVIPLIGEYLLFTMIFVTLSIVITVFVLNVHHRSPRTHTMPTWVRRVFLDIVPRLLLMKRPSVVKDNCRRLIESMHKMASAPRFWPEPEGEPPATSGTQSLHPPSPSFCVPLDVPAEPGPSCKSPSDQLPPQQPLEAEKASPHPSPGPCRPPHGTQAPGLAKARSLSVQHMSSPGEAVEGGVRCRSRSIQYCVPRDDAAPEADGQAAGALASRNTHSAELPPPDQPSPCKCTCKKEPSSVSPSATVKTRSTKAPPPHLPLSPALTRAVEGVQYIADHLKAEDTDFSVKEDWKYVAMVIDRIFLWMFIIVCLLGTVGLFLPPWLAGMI
T2 sequence (P02708 whole entry): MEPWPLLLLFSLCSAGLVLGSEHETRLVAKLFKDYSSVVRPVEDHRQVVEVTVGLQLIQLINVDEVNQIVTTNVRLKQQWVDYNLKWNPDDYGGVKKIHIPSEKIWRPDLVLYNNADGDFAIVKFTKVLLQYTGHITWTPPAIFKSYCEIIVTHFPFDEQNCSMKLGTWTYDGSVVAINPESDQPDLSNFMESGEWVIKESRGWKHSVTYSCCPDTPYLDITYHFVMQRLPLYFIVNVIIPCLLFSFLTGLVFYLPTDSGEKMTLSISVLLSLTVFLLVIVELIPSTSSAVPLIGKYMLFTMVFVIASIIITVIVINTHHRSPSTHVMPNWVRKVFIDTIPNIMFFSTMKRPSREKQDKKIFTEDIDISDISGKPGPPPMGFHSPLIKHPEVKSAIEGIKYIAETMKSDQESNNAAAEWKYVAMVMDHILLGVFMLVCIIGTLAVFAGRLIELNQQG

In the case of `Cc1cc([C@@H]2CCCN2C)on1` [ABT-418], the EC50 in the assay filed under Rattus norvegicus [1] turned out to be 380 µM; in assay [4], 10.6 µM; in assay [6] it was 411 µM; in assay [8], 64 µM. The Intrinsic activity was found to be 100% in the assay filed under Rattus norvegicus [2], 85% in assay [3], 93% in assay [5] and 38% in [7].

For the molecule `CN1CCC[C@H]1c1cccnc1` [NICOTINE], the Intrinsic activity (in the assay filed under Rattus norvegicus [2]; in [3]; in [5]; in [7]) was 100% in each case. For the same molecule, the EC50 in [6] turned out to be 180 µM; in [8], 21 µM.

Consider `c1cnc2cc([C@H]3CCCN3)oc2c1`, for which the figures for the Intrinsic activity in [3] and in [5] were 57.8% and 30%, respectively. Further, the EC50 in [4] turned out to be 11 µM; in assay [8] it was 41.5 µM. The Ki in assay [9] came out at 0.00511 µM.

With `CN1CCC[C@H]1c1cc2ncccc2o1`, the EC50 in the assay listed under Rattus norvegicus [1] is 141 µM; in [4], 3.2 µM; in assay [6], > 100 µM; in assay [8] it was > 1000 µM. For the same molecule, the Intrinsic activity in the assay listed under Rattus norvegicus [2] was found to be 43%; in assay [3], 10.6%; in [5], 81%; in assay [7], 18.9%. The Ki in assay [9] came out at 0.00273 µM.

For the molecule `c1cnc2cc([C@@H]3CCCN3)oc2c1`, the Intrinsic activity amounted to 9.2% in [3] and 7.4% in [10]. Also, the Ki in assay [9] is 0.0758 µM. Further, in assay [8], the EC50 was > 1000 µM.

Take `CN1CCC[C@H]1COc1cccnc1`: the EC50 in the assay filed under Rattus norvegicus [1] turned out to be 107 µM; in [4], 0.75 µM; in assay [6] it was 34 µM; in [8] it was 24 µM. Besides, the Intrinsic activity in the assay filed under Rattus norvegicus [2] came to 74%; in assay [3], 77.2%; in [5], 100%; in [7] it was 40%.

Regarding `CN1CCC[C@@H]1c1cc2ncccc2o1`, the Intrinsic activity in assay [3] came out at 15.2%; in [5], 5.7%. The EC50 in assay [4] and in assay [8] was > 1000 µM throughout. The same molecule yielded a Ki in assay [9] of 0.0979 µM.
